Legend:
Assay in all cases: relative viability (nuclei count vs DMSO), 5 days (fraction); higher = more cells survive
Gemcitabine + Trametinib = compound: Nc1ccn([C@@H]2O[C@H](CO)[C@@H](O)C2(F)F)c(=O)n1 [Gemcitabine] + CC(=O)Nc1cccc(-n2c(=O)n(C3CC3)c(=O)c3c(Nc4ccc(I)cc4F)n(C)c(=O)c(C)c32)c1 [Trametinib] (partner 0.02 µM)
How it was run: (§1)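 Lung cancer cell lines in 1536-well plates got either a single drug or a fixed anchor-drug dose together with five library-drug doses (not always all listed) in √10 steps, by pin tool, on the day after seeding. Nuclei were counted after 5 days, and relative viability is the treated-to-vehicle ratio of nuclei counts. Values are medians of duplicate plates.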

Gemcitabine + Navitoclax = compound: Nc1ccn([C@@H]2O[C@H](CO)[C@@H](O)C2(F)F)c(=O)n1 [Gemcitabine] + CC1(C)CCC(c2ccc(Cl)cc2)=C(CN2CCN(c3ccc(C(=O)NS(=O)(=O)c4ccc(N[C@H](CCN5CCOCC5)CSc5ccccc5)c(S(=O)(=O)C(F)(F)F)c4)cc3)CC2)C1 [Navitoclax] (partner 0.5 µM)
How it was run: as §1

Gemcitabine + Phenformin = compound: Nc1ccn([C@@H]2O[C@H](CO)[C@@H](O)C2(F)F)c(=O)n1 [Gemcitabine] + N=C(N)NC(=N)NCCc1ccccc1 [Phenformin] (partner 250 µM)
How it was run: as §1

Gemcitabine + Pemetrexed = compound: Nc1ccn([C@@H]2O[C@H](CO)[C@@H](O)C2(F)F)c(=O)n1 [Gemcitabine] + Nc1nc2[nH]cc(CCc3ccc(C(=O)N[C@@H](CCC(=O)O)C(=O)O)cc3)c2c(=O)[nH]1 [Pemetrexed] (partner 0.2 µM)
How it was run: as §1

Cell Line	relative viability (Gemcitabine + Trametinib; first compound 0.001 µM)	relative viability (Gemcitabine + Trametinib; first compound 0.003162 µM)	relative viability (Gemcitabine + Trametinib; first compound 0.01 µM)	relative viability (Gemcitabine + Trametinib; first compound 0.03162 µM)	relative viability (Gemcitabine + Trametinib; first compound 0.1 µM)	relative viability (Gemcitabine + Navitoclax; first compound 0.001 µM)	relative viability (Gemcitabine + Navitoclax; first compound 0.003162 µM)	relative viability (Gemcitabine + Navitoclax; first compound 0.01 µM)	relative viability (Gemcitabine + Navitoclax; first compound 0.03162 µM)	relative viability (Gemcitabine + Navitoclax; first compound 0.1 µM)	relative viability (Gemcitabine + Phenformin; first compound 0.001 µM)	relative viability (Gemcitabine + Phenformin; first compound 0.003162 µM)	relative viability (Gemcitabine + Phenformin; first compound 0.01 µM)	relative viability (Gemcitabine + Phenformin; first compound 0.03162 µM)	relative viability (Gemcitabine + Phenformin; first compound 0.1 µM)	relative viability (Gemcitabine + Pemetrexed; first compound 0.001 µM)	relative viability (Gemcitabine + Pemetrexed; first compound 0.003162 µM)	relative viability (Gemcitabine + Pemetrexed; first compound 0.01 µM)	relative viability (Gemcitabine + Pemetrexed; first compound 0.03162 µM)	relative viability (Gemcitabine + Pemetrexed; first compound 0.1 µM)
NCI-H1975	0.305	0.447	0.367	0.124	0.135	1.07	1.14	0.463	0.228	0.179	0.416	0.268	0.176	0.129	0.122	0.286	0.29	0.306	0.178	0.173
NCI-H1437	0.523	0.611	0.384	0.241	0.164	1.06	1.05	0.555	0.206	0.111	0.313	0.213	0.193	0.17	0.112	0.285	0.325	0.27	0.276	0.254
NCI-H2009	0.268	0.327	0.16	0.115	0.088	1.25	0.87	0.366	0.0871	0.0975	0.496	0.317	0.198	0.175	0.146	1.08	0.882	0.473	0.127	0.0868
NCI-H1651	0.828	0.813	0.826	0.185	0.114	1.07	1.16	0.928	0.204	0.0844	0.392	0.359	0.335	0.151	0.155	0.561	0.575	0.584	0.362	0.0991
NCI-H1666	0.795	0.946	0.773	0.655	0.554	0.872	0.836	0.393	0.281	0.275	0.559	0.476	0.383	0.378	0.355	0.88	0.842	0.842	0.699	0.52
NCI-H1734	0.705	0.44	0.193	0.135	0.1	0.843	0.562	0.195	0.106	0.0836	0.337	0.29	0.163	0.0972	0.106	0.408	0.377	0.197	0.139	0.136
EPLC-272H	0.301	0.301	0.248	0.18	0.106	1.14	0.953	0.395	0.0915	0.07	0.348	0.324	0.174	0.158	0.0709	0.316	0.33	0.132	0.178	0.108
NCI-H2023	0.567	0.577	0.266	0.152	0.0796	0.986	0.794	0.667	0.135	0.0835	0.35	0.327	0.192	0.0945	0.0668	0.265	0.282	0.152	0.0833	0.0801
BEN	1.02	0.615	0.311	0.245	0.226	0.0578	0.0698	0.0605	0.0528	0.0444	0.262	0.23	0.243	0.222	0.202	0.774	0.417	0.277	0.164	0.223
COR-L 105	0.418	0.463	0.364	0.367	0.345	0.792	0.581	0.544	0.291	0.263	0.563	0.48	0.308	0.271	0.203	1.32	1.01	0.895	0.37	0.282
HCC-15	0.369	0.383	0.363	0.196	0.0914	0.718	0.702	0.69	0.441	0.0936	0.47	0.492	0.331	0.144	0.0968	0.224	0.226	0.226	0.229	0.109
NCI-H2170	1.02	0.907	0.785	0.167	0.109	0.72	0.52	0.458	0.183	0.162	0.426	0.424	0.363	0.196	0.144	0.289	0.259	0.314	0.127	0.119
PC-3 [JPC-3]	0.73	0.424	0.469	0.426	0.417	0.81	0.688	0.504	0.448	0.281	0.503	0.446	0.365	0.325	0.287	1.23	0.566	0.434	0.414	0.31
NCI-H1993	0.508	0.457	0.503	0.351	0.438	1.1	1.01	0.583	0.673	0.513	0.461	0.485	0.439	0.421	0.407	0.545	0.513	0.516	1.17	0.409
NCI-H1915	0.317	0.308	0.286	0.281	0.188	0.768	0.789	0.785	0.797	0.364	0.353	0.356	0.344	0.279	0.214	0.484	0.516	0.453	0.513	0.475
RERF-LC-KJ	0.893	0.827	0.845	0.386	0.24	1.05	1.26	0.872	0.224	0.227	0.454	0.455	0.404	0.285	0.26	0.5	0.485	0.459	0.357	0.263

Reference: the supplement of paper PMC10307832
